Assays:
JAK2 = molecular target: T1, JAK2 (Homo sapiens, UniProt O60674); assay: Recombinant Human JAK2 Kinase Assay (TRF); type: biochemical; conditions: JAK2 kinase inhibition, 0.2 μM ATP; read-out: JAK2 Potency
T1 construct: host or cells: baculovirus expression system
In short: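 TRF read-out: Eu-N1 PY100 anti-phosphotyrosine antibody detects product. Enzyme is baculovirus-expressed JAK2 at 15 ng/ml; substrate is a biotinyl 15-mer peptide bound to Neutravidin-coated wells. Buffer 20 mM HEPES pH 7.2, 0.2 μM ATP, 1 mM MnCl2, 0.1% BSA, 2.5% DMSO final; 20 min, RT.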

ALK = molecular target: T2, ALK (Homo sapiens, UniProt Q9UM73); assay: ALK Kinase Assay (ELISA/TRF, PLC-γ substrate); type: biochemical; conditions: ALK kinase inhibition, 1 μM ATP; read-out: ALK Potency
T2 construct: host or cells: baculovirus expression system
In short: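 Wells were coated with 10 μg/mL phospholipase C-γ substrate in TBS, and the reaction was started by adding 30 ng/ml ALK enzyme and run at 37° C for 15 minutes. Phosphorylated product was detected with Eu-N1-labeled PT66 antibody, and IC50 values came from sigmoidal variable-slope fits of percent inhibition against log concentration.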

T1 sequence (O60674 whole entry): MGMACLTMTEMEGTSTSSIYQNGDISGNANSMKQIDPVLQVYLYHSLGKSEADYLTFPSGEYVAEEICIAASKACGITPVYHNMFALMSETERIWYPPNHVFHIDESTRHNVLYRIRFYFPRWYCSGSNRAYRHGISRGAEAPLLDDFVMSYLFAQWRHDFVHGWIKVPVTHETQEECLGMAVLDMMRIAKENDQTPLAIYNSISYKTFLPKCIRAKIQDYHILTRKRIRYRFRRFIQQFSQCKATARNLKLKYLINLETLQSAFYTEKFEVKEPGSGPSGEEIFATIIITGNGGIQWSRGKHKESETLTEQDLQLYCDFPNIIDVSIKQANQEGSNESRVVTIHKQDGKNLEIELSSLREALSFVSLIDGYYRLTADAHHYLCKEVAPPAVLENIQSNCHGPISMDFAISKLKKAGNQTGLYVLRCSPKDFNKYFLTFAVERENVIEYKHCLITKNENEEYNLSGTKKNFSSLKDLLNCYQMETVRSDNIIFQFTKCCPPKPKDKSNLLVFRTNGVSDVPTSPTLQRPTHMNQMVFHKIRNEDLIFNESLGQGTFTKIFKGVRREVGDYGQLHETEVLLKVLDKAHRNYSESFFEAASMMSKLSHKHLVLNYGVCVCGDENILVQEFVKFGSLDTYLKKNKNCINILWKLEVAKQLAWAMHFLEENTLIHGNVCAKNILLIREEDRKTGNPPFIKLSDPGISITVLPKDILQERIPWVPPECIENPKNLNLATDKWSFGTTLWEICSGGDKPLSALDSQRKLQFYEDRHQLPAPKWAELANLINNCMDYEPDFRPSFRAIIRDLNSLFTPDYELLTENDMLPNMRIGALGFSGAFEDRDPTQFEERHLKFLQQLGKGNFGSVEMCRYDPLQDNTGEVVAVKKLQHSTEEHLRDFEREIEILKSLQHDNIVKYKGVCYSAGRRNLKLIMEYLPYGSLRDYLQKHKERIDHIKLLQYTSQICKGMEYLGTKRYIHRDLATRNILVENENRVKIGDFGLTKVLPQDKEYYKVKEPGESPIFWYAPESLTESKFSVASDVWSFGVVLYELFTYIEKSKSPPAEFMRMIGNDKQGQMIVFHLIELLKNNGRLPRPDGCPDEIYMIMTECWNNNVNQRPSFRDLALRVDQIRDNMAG
T2 sequence (Q9UM73 19-1620): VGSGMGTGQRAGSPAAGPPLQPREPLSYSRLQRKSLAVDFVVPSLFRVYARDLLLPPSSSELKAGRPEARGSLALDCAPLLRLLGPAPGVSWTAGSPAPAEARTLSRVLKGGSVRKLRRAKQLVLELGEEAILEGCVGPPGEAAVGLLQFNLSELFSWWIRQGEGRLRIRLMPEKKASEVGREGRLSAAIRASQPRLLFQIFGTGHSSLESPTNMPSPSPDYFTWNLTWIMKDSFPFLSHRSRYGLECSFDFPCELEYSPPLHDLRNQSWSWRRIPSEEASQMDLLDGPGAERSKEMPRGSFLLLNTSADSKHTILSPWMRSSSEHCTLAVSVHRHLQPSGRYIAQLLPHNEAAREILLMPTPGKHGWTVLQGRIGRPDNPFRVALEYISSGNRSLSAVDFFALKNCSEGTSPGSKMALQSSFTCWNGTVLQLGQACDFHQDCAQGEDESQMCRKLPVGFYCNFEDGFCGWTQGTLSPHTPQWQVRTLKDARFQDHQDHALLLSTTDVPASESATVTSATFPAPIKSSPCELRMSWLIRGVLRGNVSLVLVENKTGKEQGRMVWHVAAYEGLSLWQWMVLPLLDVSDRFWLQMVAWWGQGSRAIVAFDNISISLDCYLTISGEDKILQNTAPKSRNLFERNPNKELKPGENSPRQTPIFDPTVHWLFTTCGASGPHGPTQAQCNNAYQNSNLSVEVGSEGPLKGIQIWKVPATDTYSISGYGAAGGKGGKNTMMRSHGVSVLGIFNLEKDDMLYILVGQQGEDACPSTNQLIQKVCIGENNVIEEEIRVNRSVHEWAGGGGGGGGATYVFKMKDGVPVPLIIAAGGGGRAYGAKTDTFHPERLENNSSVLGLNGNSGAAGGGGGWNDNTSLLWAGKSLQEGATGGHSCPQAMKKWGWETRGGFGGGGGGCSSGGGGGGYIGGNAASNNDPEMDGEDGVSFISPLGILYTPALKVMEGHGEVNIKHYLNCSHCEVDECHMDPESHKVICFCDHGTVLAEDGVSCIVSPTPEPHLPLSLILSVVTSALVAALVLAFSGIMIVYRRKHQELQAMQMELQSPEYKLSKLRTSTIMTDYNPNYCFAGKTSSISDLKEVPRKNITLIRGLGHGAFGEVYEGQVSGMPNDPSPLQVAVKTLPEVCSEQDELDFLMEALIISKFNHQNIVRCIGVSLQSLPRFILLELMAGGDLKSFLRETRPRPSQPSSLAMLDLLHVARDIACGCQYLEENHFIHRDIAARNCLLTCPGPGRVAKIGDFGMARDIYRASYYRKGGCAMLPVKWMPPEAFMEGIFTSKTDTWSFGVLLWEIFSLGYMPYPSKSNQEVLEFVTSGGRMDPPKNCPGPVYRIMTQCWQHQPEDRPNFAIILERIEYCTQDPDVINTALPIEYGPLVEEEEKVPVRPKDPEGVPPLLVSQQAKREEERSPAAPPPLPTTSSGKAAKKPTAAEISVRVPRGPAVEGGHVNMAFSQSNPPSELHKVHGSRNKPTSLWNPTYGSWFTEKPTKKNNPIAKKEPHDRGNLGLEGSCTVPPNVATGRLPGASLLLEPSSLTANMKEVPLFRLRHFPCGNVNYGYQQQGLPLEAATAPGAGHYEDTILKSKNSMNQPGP

| Structure (SMILES) | IC50 (JAK2) [nM] | IC50 (ALK) [nM] |
| --- | --- | --- |
| OCC1CCN(c2ccc(Nc3ncc4ccc(-c5cccc(Cl)c5)n4n3)cc2)CC1 [Example 1133, (1-{4-[7-(3-Chloro-phenyl)-pyrrolo[2,1-f][1,2,4]triazin-2-ylamino]-phenyl}-piperidin-4-yl)-methanol] | < 100 | 100 to 1000 |
| OCCN1CCN(c2ccc(Nc3ncc4ccc(-c5cccc(Cl)c5)n4n3)cc2)CC1 [Example 1134, 2-(4-{4-[7-(3-Chloro-phenyl)-pyrrolo[2,1-f][1,2,4]triazin-2-ylamino]-phenyl}-piperazin-1-yl)-ethanol] | < 100 | < 100 |
| CN1CCN(c2ccc(Nc3ncc4ccc(C5=CCN(C(=O)OC(C)(C)C)CC5)n4n3)cc2)CC1 [Example 1135, 4-{2-[4-(4-Methyl-piperazin-1-yl)-phenylamino]-pyrrolo[2,1-f][1,2,4]triazin-7-yl}-3,6-dihydro-2H-pyridine-1-carboxylic acid tert-butyl ester] | < 100 | 100 to 1000 |
| CCN(CC)C1CCN(c2ccc(Nc3ncc4ccc(-c5cccc(S(C)(=O)=O)c5)n4n3)cc2)CC1 [Example 1137, [4-(4-Diethylamino-piperidin-1-yl)-phenyl]-[7-(3-methanesulfonyl-phenyl)-pyrrolo[2,1-f][1,2,4]triazin-2-yl]-amine] | < 100 | 100 to 1000 |
| CCN(CC)C1CCN(c2ccc(Nc3ncc4ccc(-c5ccccc5OC)n4n3)cc2)CC1 [Example 1138, [4-(4-Diethylamino-piperidin-1-yl)-phenyl]-[7-(2-methoxy-phenyl)-pyrrolo[2,1-f][1,2,4]triazin-2-yl]-amine] | < 100 | < 100 |
| CN1CCN(c2ccc(Nc3ncc4ccc(C5=CCN(S(C)(=O)=O)CC5)n4n3)cc2)CC1 [Example 1139, [7-(1-Methane sulfonyl-1,2,3,6-tetrahydro-pyridin-4-yl)-pyrrolo[2,1-f][1,2,4]triazin-2-yl]-[4-(4-methyl-piperazin-1-yl)-phenyl]-amine] | < 100 | 100 to 1000 |
| CN1CCN(c2ccc(Nc3ncc4ccc(Cc5ccccc5)n4n3)cc2)CC1 [Example 1140, (7-Benzyl-pyrrolo[2,1-f][1,2,4]triazin-2-yl)-[4-(4-methyl-piperazin-1-yl)-phenyl]-amine] | < 100 | < 100 |
| CN1CCN(c2ccc(Nc3ncc4ccc(-c5ccccc5OCC#N)n4n3)cc2)CC1 [Example 1141, (2-{2-[4-(4-Methyl-piperazin-1-yl)-phenylamino]-pyrrolo[2,1-f][1,2,4]triazin-7-yl}-phenoxy)-acetonitrile] | < 100 | < 100 |
| CN1CCN(c2ccc(Nc3ncc4ccc(-c5cccc(CCC#N)c5)n4n3)cc2)CC1 [Example 1142, 3-(3-{2-[4-(4-Methyl-piperazin-1-yl)-phenylamino]-pyrrolo[2,1-f][1,2,4]triazin-7-yl}-phenyl)-propionitrile] | < 100 | < 100 |
| CN1CCN(c2ccc(Nc3ncc4ccc(-c5cccc(C(=O)OC(C)(C)C)c5)n4n3)cc2)CC1 [Example 1143, 3-{2-[4-(4-Methyl-piperazin-1-yl)-phenylamino]-pyrrolo[2,1-f][1,2,4]triazin-7-yl}-benzoic acid tert-butyl ester] | < 100 | 100 to 1000 |
| N#CCOc1ccccc1-c1ccc2cnc(Nc3ccc(N4CCOCC4)cc3)nn12 [Example 1144, {2-[2-(4-Morpholin-4-yl-phenylamino)-pyrrolo[2,1-f][1,2,4]triazin-7-yl]-phenoxy}-acetonitrile] | < 100 | < 100 |
| N#CCCc1cccc(-c2ccc3cnc(Nc4ccc(N5CCOCC5)cc4)nn23)c1 [Example 1145, 3-{3-[2-(4-Morpholin-4-yl-phenylamino)-pyrrolo[2,1-f][1,2,4]triazin-7-yl]-phenyl}-propionitrile] | < 100 | 100 to 1000 |
| CCOC(=O)c1ccccc1-c1ccc2cnc(Nc3ccc(N4CCN(C)CC4)cc3)nn12 [Example 1146, 2-{2-[4-(4-Methyl-piperazin-1-yl)-phenylamino]-pyrrolo[2,1-f][1,2,4]triazin-7-yl}-benzoic acid ethyl ester] | < 100 | 100 to 1000 |
| C#CCNC(=O)c1cccc(-c2ccc3cnc(Nc4ccc(N5CCN(C)CC5)cc4)nn23)c1 [Example 1147, 3-{2-[4-(4-Methyl-piperazin-1-yl)-phenylamino]-pyrrolo[2,1-f][1,2,4]triazin-7-yl}-N-prop-2-ynyl-benzamide] | < 100 | 100 to 1000 |
| N#CCCc1cccc(-c2ccc3cnc(Nc4ccc5c(c4)CCC(N4CCOCC4)CC5)nn23)c1 (stereo not drawn) [Example 1148, 3-{3-[2-(7-Morpholin-4-yl-6,7,8,9-tetrahydro-5H-benzocyclohepten-2-ylamino)-pyrrolo[2,1-f][1,2,4]triazin-7-yl]-phenyl}-propionitrile] | < 100 | < 100 |
| CN1CCC(c2ccc(Nc3ncc4ccc(-c5cccc(CCC#N)c5)n4n3)cc2)CC1 [Example 1149, 3-(3-{2-[4-(1-Methyl-piperidin-4-yl)-phenylamino]-pyrrolo[2,1-f][1,2,4]triazin-7-yl}-phenyl)-propionitrile] | < 100 | < 100 |
| N#CCCc1cccc(-c2ccc3cnc(Nc4ccc(N5CCC(N6CCOCC6)CC5)cc4)nn23)c1 [Example 1150, 3-(3-{2-[4-(4-Morpholin-4-yl-piperidin-1-yl)-phenylamino]-pyrrolo[2,1-f][1,2,4]triazin-7-yl}-phenyl)-propionitrile] | < 100 | < 100 |
| N#CCCc1cccc(-c2ccc3cnc(Nc4ccc(N5CCN(CCO)CC5)cc4)nn23)c1 [Example 1151, 3-[3-(2-{4-[4-(2-Hydroxy-ethyl)-piperazin-1-yl]-phenylamino}-pyrrolo[2,1-f][1,2,4]triazin-7-yl)-phenyl]-propionitrile] | < 100 | < 100 |
| COCCN1CCc2ccc(Nc3ncc4ccc(-c5cccc(CCC#N)c5)n4n3)cc2CC1 [Example 1152, 3-(3-{2-[3-(2-Methoxy-ethyl)-2,3,4,5-tetrahydro-1H-benzo[d]azepin-7-ylamino]-pyrrolo[2,1-f][1,2,4]triazin-7-yl}-phenyl)-propionitrile] | < 100 | < 100 |
| CN1CCN(c2cccc(Nc3ncc4ccc(-c5cccc(CCC#N)c5)n4n3)c2)CC1 [Example 1153, 3-(3-{2-[3-(4-Methyl-piperazin-1-yl)-phenylamino]-pyrrolo[2,1-f][1,2,4]triazin-7-yl}-phenyl)-propionitrile] | < 100 | < 100 |
| CN1CCN(c2ccc(Nc3ncc4ccc(-c5ccccc5O)n4n3)cc2)CC1 [Example 1154, 2-{2-[4-(4-Methyl-piperazin-1-yl)-phenylamino]-pyrrolo[2,1-f][1,2,4]triazin-7-yl}-phenol] | < 100 | < 100 |
| CN1CCN(c2ccc(Nc3ncc4cc(-c5ccccc5OCC#N)cn4n3)cc2)CC1 [Example 1155, (2-{2-[4-(4-Methyl-piperazin-1-yl)-phenylamino]-pyrrolo[2,1-f][1,2,4]triazin-6-yl}-phenoxy)-acetonitrile] | 100 to 1000 | 1000 to 10000 |
| COc1ccccc1-c1cc2cnc(Nc3ccc(N4CCN(C)CC4)cc3)nn2c1 [Example 1156, [6-(2-Methoxy-phenyl)-pyrrolo[2,1-f][1,2,4]triazin-2-yl]-[4-(4-methyl-piperazin-1-yl)-phenyl]-amine] | 100 to 1000 | 1000 to 10000 |
| CN1CCN(c2ccc(Nc3ncc4cc(-c5ccncc5)cn4n3)cc2)CC1 [Example 1158] | < 100 | > 10000 |
| COc1cc(N2CCC(N3CCOCC3)CC2)ccc1Nc1ncc2ccc(-c3cccc(CCC#N)c3)n2n1 [Example 1159, 3-(3-{2-[2-Methoxy-4-(4-morpholin-4-yl-piperidin-1-yl)-phenylamino]-pyrrolo[2,1-f][1,2,4]triazin-7-yl}-phenyl)-propionitrile] | < 100 | < 100 |
| CN1CCN(c2ccc(Nc3ncc4cc(-c5cccc(CCC#N)c5)cn4n3)cc2)CC1 [Example 1161, 3-(3-{2-[4-(4-Methyl-piperazin-1-yl)-phenylamino]-pyrrolo[2,1-f][1,2,4]triazin-6-yl}-phenyl)-propionitrile] | < 100 | 100 to 1000 |
| CN1CCN(c2ccc(Nc3ncc4ccc(-c5cccc(CNCCS(C)(=O)=O)c5)n4n3)cc2)CC1 [Example 1162, (7-{3-[(2-Methanesulfonyl-ethylamino)-methyl]-phenyl}-pyrrolo[2,1-f][1,2,4]triazin-2-yl)-[4-(4-methyl-piperazin-1-yl)-phenyl]-amine] | < 100 | 100 to 1000 |
| CN1CCN(c2ccc(Nc3ncc4ccc(NCc5cccc([N+](=O)[O-])c5)n4n3)cc2)CC1 [Example 1163, N(2)-[4-(4-Methyl-piperazin-1-yl)-phenyl]-N(7)-(3-nitro-benzyl)-pyrrolo[2,1-f][1,2,4]triazine-2,7-diamine] | < 100 | 100 to 1000 |
| CN1CCN(c2ccc(Nc3ncc4ccc(NCc5cccnc5)n4n3)cc2)CC1 [Example 1164, N(2)-[4-(4-Methyl-piperazin-1-yl)-phenyl]-N(7)-pyridin-3-ylmethyl-pyrrolo[2,1-f][1,2,4]triazine-2,7-diamine] | < 100 | 100 to 1000 |
| CN1CCN(c2ccc(Nc3ncc4ccc(NCc5ccncc5)n4n3)cc2)CC1 [Example 1165, N(2)-[4-(4-Methyl-piperazin-1-yl)-phenyl]-N(7)-pyridin-4-ylmethyl-pyrrolo[2,1-f][1,2,4]triazine-2,7-diamine] | < 100 | 1000 to 10000 |

Source: patent US8471005B2 (Cephalon, Inc., priority 2008, dated 2013)
